Where two headings read alike, the source gives them in different places.
Legend:
Assay type in all cases: cell-based
[1] = test system: pgRNA; assay: pgRNA assay (branched DNA), HBV-infected PHH; conditions: Hepatitis B virus
Protocol: (§1) Fresh primary human hepatocytes (PXB-PHH) harvested from humanized mice (uPA/SCID mice)—herein called PHH—were obtained from PhoenixBio Co., Ltd (Japan). Cells were seeded on a collagen I-coated plate at the following cell density: 35,000 cells/well (384-well), 70,000 cells/well (96-well), or, 400,000 cells/well (24-well) in modified hepatocyte clonal growth medium (dHCGM). dHCGM is a DMEM medium containing 100 U/ml Penicillin, 100 μg/ml Streptomycin, 20 mM Hopes, 44 mM NaHCO3, 15 μg/ml L-proline, 0.25 μg/ml insulin, 50 nM Dexamethazone, 5 ng/ml EGF, 0.1 mM Asc-2P, 2% DMSO and 10% FBS (Ishida et al., 2015). Cells were cultured at 37° C. incubator in a humidified atmosphere with 5% CO2. Culture medium was replaced 24 h post-plating and every 2 days until harvest.
Following 4 day of maturation with 1 μM MB-1, HLC were incubated with HBV (purified from CHB individuals) at multiplicity of infection (MOI) 10-40 without PEG for 24 hr; virus inoculum was removed the following day. […] Compound treatment in HLC and PHH was started at day 3 post infection. Compound (in powder) was dissolved in DMSO; the final concentration of DMSO added to cells is 1%. Fresh compound was replenished every 2 day until cells were harvested at day 10 (PHH), or day 14 (HLC). Compound effect on HBV and cellular toxicity was measured by multiplex assay (HBsAg, HBeAg, albumin), branched DNA (pgRNA), or digital PCR (cccDNA) and depicted as % of inhibition compared to DMSO control. Graphs were prepared using Spotfire software.
Levels of pgRNA in infected cells (96-well plate) were measured using QuantiGene Singleplex 2.0 assay (Affymetrix), a hybridization-based assay that utilizes the xMAP™ Luminex magnetic beads and branched DNA (bDNA) signal amplification technology. The assay is performed in 96-well plate according to manufacturer's recommendation. Briefly, cells were lysed and lysates were incubated with HBV probe sets panel at 50-55° C. for 30 min then stored at −80° C. Signal amplification is achieved via sequential hybridization of PreAmplifier, Amplifier, and Label Probe. After adding Streptavidin phycoerythrin (SAPE) substrate, the signal is read using a FlexMap 3D (Luminex) instrument.

[2] = test system: cccDNA; assay: cccDNA assay (digital PCR), HBV-infected PHH
Protocol: as §1
(§2) Following 4 day of maturation with 1 μM MB-1, HLC were incubated with HBV (purified from CHB individuals) at multiplicity of infection (MOI) 10-40 without PEG for 24 hr; virus inoculum was removed the following day. HBV infection in PHH was performed at MOI 40+4% PEG. Compound treatment in HLC and PHH was started at day 3 post infection. Compound (in powder) was dissolved in DMSO; the final concentration of DMSO added to cells is 1%. Fresh compound was replenished every 2 day until cells were harvested at day 10 (PHH), or day 14 (HLC). Compound effect on HBV and cellular toxicity was measured by multiplex assay (HBsAg, HBeAg, albumin), branched DNA (pgRNA), or digital PCR (cccDNA) and depicted as % of inhibition compared to DMSO control. Graphs were prepared using Spotfire software.
HBV-infected cells (in 384- or 96-well plate) were lysed with Cells-to-CT Lysis Reagents according to manufacturer's instruction (Thermo Scientific). To remove excess of RC-DNA, samples were digested with T5 exonuclease (10 U) (New England Biolabs), at 37° C. for 1 hr; enzyme was inactivated by heating the samples at 80° C. for 15 min. DNA samples (1.2 μl) were added into the digital PCR Master Mix (QuantStudio Digital PCR Kit, Thermo Scientific) containing cccDNA primers 5′-[…] (forward), 5′-[…] (reverse), and […] (probe) (Werle-Lapostolle et al., 2004) in a total volume 5 μl, and loaded into dPCR array using AccuFill System (AB). Each sample was loaded into 4 subarrays/256 through-holes. Digital PCR assay was run on QuantStudio 12K Flex (AB) and data was analyzed by Digital Suite Software (AB).

[3] = test system: HBeAg; assay: HBeAg, HBV-infected HepaRG; conditions: Hepatitis B virus
[4] = test system: albumin (secreted, cellular toxicity marker); assay: Albumin (in vitro tox), HepaRG; conditions: human
Protocol: as §2
A custom, Luminex-based multiplex assay that simultaneously measured HBeAg, albumin, and HBsAg was developed by Radix BioSolutions (Georgetown, Tex.). This is a sandwich immunoassay; each capture antibody was coupled with xMAP™ Luminex magnetic beads. […] Samples were read on FlexMAP 3D (Luminex) and analyzed by Genedata software.
Most of HBV in vitro studies, including evaluation of compound antiviral activity, are performed in hepatoma cell lines (HepaRG or HepG2-NTCP) infected with cell culture-derived HBV (e.g. HepG2.2.15-derived virus, GT D). […] To address the first question, PHH (in 384-well plate) were infected with four clinical HBV isolates (GT A-D, at MOI 40). […] Most HBV in vitro studies are performed in hepatoma cell lines (e.g. HepaRG or HepG2 cell lines) utilizing HepG2-derived HBV as the virus inoculum.

Question: O=C(NC(CO)CO)c1c[nH]c2ncc(C3CC3)nc12 [compound 7] was tested. Which IC50 ([1]; 240 h, patient-derived HBV GT A, MOI 40, day 10 pi, read-out: pgRNA IC50 (μM) Median) did it give?
Answer: 3.58 µM

Question: And the IC50 ([1]; 240 h, patient-derived HBV GT B, MOI 40, day 10 pi, read-out: pgRNA IC50 (μM) Median)?
Answer: 3.13 µM

Question: And the IC50 ([1]; 240 h, patient-derived HBV GT C, MOI 40, day 10 pi, read-out: pgRNA IC50 (μM) Median)?
Answer: 1.64 µM

Question: And the IC50 ([1]; 240 h, patient-derived HBV GT D, MOI 40, day 10 pi (Table 5), read-out: pgRNA IC50 (μM) Median)?
Answer: 1.35 µM

Question: And the IC50 ([1]; HepG2.2.15-derived HBV GT D, MOI 40, read-out: pgRNA IC50 (μM) Median)?
Answer: 12.8 µM

Question: And the IC50 ([1]; HepG2.2.15-derived HBV GT D, MOI 125, read-out: pgRNA IC50 (μM) Median)?
Answer: 11.3 µM

Question: And the IC50 ([1]; patient-derived HBV GT D, MOI 40 (Table 6), read-out: pgRNA IC50 (μM) Median)?
Answer: 1.48 µM

Question: What about the IC50 ([1]; patient-derived HBV GT D, MOI 125, read-out: pgRNA IC50 (μM) Median) of the same compound?
Answer: 2.87 µM

Question: What about the IC50 ([1]; patient-derived HBV, read-out: pgRNA IC50) of the same compound?
Answer: 1.48 µM

Question: What about the IC50 ([2]; Hepatitis B virus, 240 h, patient-derived HBV GT A, MOI 40, day 10 pi, read-out: cccDNA IC50 (μM) Median) of the same compound?
Answer: 7.15 µM

Question: What about the IC50 ([2]; Hepatitis B virus, 240 h, patient-derived HBV GT B, MOI 40, day 10 pi, read-out: cccDNA IC50 (μM) Median) of the same compound?
Answer: 6.56 µM

Question: And the IC50 ([2]; Hepatitis B virus, 240 h, patient-derived HBV GT C, MOI 40, day 10 pi, read-out: cccDNA IC50 (μM) Median)?
Answer: 6.2 µM

Question: And the IC50 ([2]; Hepatitis B virus, 240 h, patient-derived HBV GT D, MOI 40, day 10 pi (Table 5), read-out: cccDNA IC50 (μM) Median)?
Answer: 6.69 µM

Question: And the IC50 ([2]; Hepatitis B virus, HepG2.2.15-derived HBV GT D, MOI 40, read-out: cccDNA IC50 (μM) Median)?
Answer: 25 µM

Question: And the IC50 ([2]; Hepatitis B virus, HepG2.2.15-derived HBV GT D, MOI 125, read-out: cccDNA IC50 (μM) Median)?
Answer: 25.2 µM

Question: What about the IC50 ([2]; Hepatitis B virus, patient-derived HBV (GT D), read-out: cccDNA IC50 (μM) Median) of the same compound?
Answer: < 10 µM

Question: And the IC50 ([2]; Hepatitis B virus, patient-derived HBV GT A-D, read-out: cccDNA IC50s)?
Answer: 6.2 to 7.15 µM

Question: And the IC50 ([2]; Hepatitis B virus, patient-derived HBV GT D, MOI 40 (Table 6), read-out: cccDNA IC50 (μM) Median)?
Answer: 6.41 µM

Question: And the IC50 ([2]; Hepatitis B virus, patient-derived HBV GT D, MOI 125, read-out: cccDNA IC50 (μM) Median)?
Answer: 6.78 µM

Question: What about the IC50 ([2]; patient-derived HBV (GT D), read-out: cccDNA IC50 (μM) Median) of the same compound?
Answer: 6.76 µM

Question: And the IC50 ([3]; read-out: HBeAg IC50 (μM) Median, HepaRG, HepG2.2.15-derived HBV GT D, MOI 40)?
Answer: 6.11 µM

Question: And the IC50 ([3]; read-out: HBeAg IC50 (μM) Median, HepaRG, HepG2.2.15-derived HBV GT D, MOI 125)?
Answer: 6.55 µM

Question: And the IC50 ([3]; read-out: HBeAg IC50 (μM) Median, HepaRG, patient-derived HBV GT D, MOI 40)?
Answer: 0.41 µM

Question: And the IC50 ([3]; read-out: HBeAg IC50 (μM) Median, HepaRG, patient-derived HBV GT D, MOI 125)?
Answer: 0.52 µM

Question: And the IC50 ([4]; HepG2.2.15-derived HBV GT D, MOI 40, read-out: In vitro tox albumin IC50 (μM) Median)?
Answer: 24.9 µM

Question: What about the IC50 ([4]; HepG2.2.15-derived HBV GT D, MOI 125, read-out: In vitro tox albumin IC50 (μM) Median) of the same compound?
Answer: 26.6 µM

Question: And the IC50 ([4]; HepaRG cells infected with HBV, patient-derived HBV GT D, MOI 40, read-out: In vitro tox albumin IC50 (μM) Median)?
Answer: 23.4 µM

Question: And the IC50 ([4]; HepaRG cells infected with HBV, patient-derived HBV GT D, MOI 125, read-out: In vitro tox albumin IC50 (μM) Median)?
Answer: 25.7 µM
